Literature values as cited in article PMC3290704 (Journal of the American Chemical Society, 2012).

Columns and labels:
TAZ2 = details: fluorescence titrations
TAZ2 from p300 = details: NMR structure of complex

| Substance | Kd (TAZ2) | TAZ2 residues in direct hydrophobic contact with p53 (TAZ2 from p300) | p53 residues forming an α-helix upon binding (TAZ2 from p300) |
| --- | --- | --- | --- |
| p53(13–61): p53(13–61), literature TAZ2 binder by fluorescence titration | 10 to 20 nM | – | – |
| p53(2–39): p53(2–39) peptide in NMR structure with TAZ2 from p300 | – | Val1802, Leu1823, and Leu1826 of TAZ2 have direct hydrophobic contacts with p53 | residues 17 ~ 24 of the p53 AD1 subdomain form an α-helix upon binding |
